Results taken from ChEMBL document CHEMBL1131983, “Synthesis of piperazine derivatives and evaluation of their antihistamine and antibradykinin effects” (Bioorg Med Chem Lett, 1999).

What was measured:
Type in all cases: tissue-based
[1] = biological target: T1, B2 bradykinin receptor (Rattus norvegicus) (UniProt P25023); experiment: In vitro inhibitory activity against Bradykinin receptor B2 in isolated rat ileum at 0.1 uM
T1 sequence (whole entry): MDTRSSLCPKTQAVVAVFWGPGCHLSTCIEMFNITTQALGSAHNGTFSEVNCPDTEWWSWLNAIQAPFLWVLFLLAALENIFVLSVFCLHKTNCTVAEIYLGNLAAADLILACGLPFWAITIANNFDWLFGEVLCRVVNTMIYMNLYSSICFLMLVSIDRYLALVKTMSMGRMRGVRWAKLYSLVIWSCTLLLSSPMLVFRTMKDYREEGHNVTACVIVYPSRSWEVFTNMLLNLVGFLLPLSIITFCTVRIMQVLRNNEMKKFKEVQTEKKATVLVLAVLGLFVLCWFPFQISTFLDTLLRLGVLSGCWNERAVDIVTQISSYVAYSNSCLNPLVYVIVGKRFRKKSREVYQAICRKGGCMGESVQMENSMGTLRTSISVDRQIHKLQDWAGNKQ

[2] = biological target: Histamine H1 receptor (Cavia porcellus) (UniProt P31389); experiment: In vitro inhibitory activity against histamine H1 receptor in guinea-pig ileum at 0.1 uM
Sequence of Histamine H1 receptor (Cavia porcellus) (P31389 whole entry): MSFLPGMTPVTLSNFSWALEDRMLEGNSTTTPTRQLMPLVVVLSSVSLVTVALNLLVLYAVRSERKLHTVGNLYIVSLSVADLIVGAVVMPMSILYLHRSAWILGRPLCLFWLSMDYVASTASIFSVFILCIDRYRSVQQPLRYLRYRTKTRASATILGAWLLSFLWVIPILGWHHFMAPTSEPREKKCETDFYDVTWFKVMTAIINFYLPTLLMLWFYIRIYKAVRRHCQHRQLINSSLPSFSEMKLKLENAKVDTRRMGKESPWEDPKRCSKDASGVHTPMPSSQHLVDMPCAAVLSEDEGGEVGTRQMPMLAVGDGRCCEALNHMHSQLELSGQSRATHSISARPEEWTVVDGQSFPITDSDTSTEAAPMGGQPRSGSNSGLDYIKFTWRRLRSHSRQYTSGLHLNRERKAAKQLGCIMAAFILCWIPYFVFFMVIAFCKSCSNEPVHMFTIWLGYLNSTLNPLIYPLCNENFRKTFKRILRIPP

[3] = biological target: T1, B2 bradykinin receptor (Rattus norvegicus); experiment: In vitro inhibitory activity against Bradykinin receptor B2 in isolated rat ileum at 0.1uM; '-' indicates activation

| Compound | inhibition [1] | inhibition [2] | inhibition [3] |
| --- | --- | --- | --- |
| Clc1ccc(C(c2ccccc2)N2CCN(CCCOCc3ccc4ccccc4c3)CC2)cc1 (centres undefined) | 17.7% | 26.4% |  |
| Clc1ccc(C(c2ccccc2)N2CCN(CCOCc3cccc4ccccc34)CC2)cc1 (centres undefined) | 17% | 20% |  |
| COc1ccc(COCCN2CCN(C(c3ccccc3)c3ccc(Cl)cc3)CC2)cc1 (centres undefined) | 8.7% | 78.5% |  |
| COc1cccc(COCCN2CCN(C(c3ccccc3)c3ccc(Cl)cc3)CC2)c1 (centres undefined) |  | 33% | -10% |
| CC(C)c1ccc(COCCN2CCN(C(c3ccccc3)c3ccc(Cl)cc3)CC2)cc1 (centres undefined) | 5% | 77.5% |  |
| Clc1ccc(C(c2ccccc2)N2CCN(CCOCc3ccc4ccccc4c3)CC2)cc1 (centres undefined) |  | 10% | -9.5% |
| Clc1ccc(C(c2ccccc2)N2CCN(CCCOCc3cccc4ccccc34)CC2)cc1 (centres undefined) | 11.9% | 63% |  |

Continued, values first:

| inhibition [1] | inhibition [2] | inhibition [3] | Compound |
| --- | --- | --- | --- |
| 25% | 14.3% |  | CC(COCC(=O)O)CN1CCN(C(c2ccccc2)c2ccc(Cl)cc2)CC1 (centres undefined) |
| 25.4% | 52.7% |  | O=C(O)COC(CCN1CCN(C(c2ccccc2)c2ccc(Cl)cc2)CC1)c1ccccc1 (centres undefined) |
| 26.6% | 57% |  | O=C(O)COC(CN1CCN(C(c2ccccc2)c2ccc(Cl)cc2)CC1)c1cccc2ccccc12 (centres undefined) |
|  | 11% | -3.7% | O=C(O)COC(CCc1ccccc1)CN1CCN(C(c2ccccc2)c2ccc(Cl)cc2)CC1 (centres undefined) |
| 36.6% | 28.4% |  | O=C(O)Cc1ccc(COCCN2CCN(C(c3ccccc3)c3ccc(Cl)cc3)CC2)cc1 (centres undefined) |
| 33.4% | 42.9% |  | CC(C)(COCC(=O)O)CN1CCN(C(c2ccccc2)c2ccc(Cl)cc2)CC1 (centres undefined) |
| 27% | 50.7% |  | O=C(O)COCCN1CCN(C(c2ccccc2)c2ccc(Cl)cc2)CC1 (centres undefined) |
| 9.1% | 43.7% |  | O=C(O)C(OCCN1CCN(C(c2ccccc2)c2ccc(Cl)cc2)CC1)c1ccccc1 (centres undefined) |
| 12.6% | 10.2% |  | CCC(OCCN1CCN(C(c2ccccc2)c2ccc(Cl)cc2)CC1)C(=O)O (centres undefined) |
| 45.6% | 12.5% |  | CC(CN1CCN(C(c2ccccc2)c2ccc(Cl)cc2)CC1)(OCC(=O)O)c1ccccc1 (centres undefined) |
